In ChEMBL document CHEMBL1152224, “Small, non-peptide C5a receptor antagonists: part 1” (Bioorg Med Chem Lett, 2008):

Key:
[1] = Lipophilicity, log P of the compound; assay type: physicochemical; settings: octanol/water
[2] = in vitro; settings: human, liver microsomes
[3] = Clearance in rat at 0.5 mg/kg, iv and 10 mg/kg, po; assay type: ADME, organism-based; settings: in vivo
[4] = physchem; settings: octanol/water, pH 7.4
[5] = Oral bioavailability in rat at 10 mg/kg, po; assay type: ADME, organism-based; settings: in vivo
[6] = Volume of distribution in rat at 0.5 mg/kg, iv and 10 mg/kg, po; assay type: ADME, organism-based; settings: in vivo
[7] = Half life in rat at 0.5 mg/kg, iv and 10 mg/kg, po; assay type: ADME, organism-based; settings: in vivo
[8] = Half life in dog at 0.5 mg/kg, iv; assay type: ADME, organism-based, Canis lupus familiaris; design: dose 0.5 mg/kg, route intravenous; settings: in vivo
[9] = Volume of distribution in dog at 0.5 mg/kg, iv; assay type: ADME, organism-based, Canis lupus familiaris; design: dose 0.5 mg/kg, route intravenous; settings: in vivo
[10] = Clearance in dog at 0.5 mg/kg, iv; assay type: ADME, organism-based, Canis lupus familiaris; design: dose 0.5 mg/kg, route intravenous; settings: in vivo

| logP [1] | half-life [2] [min] | clearance [3] [mL/min/kg] | logD [4] | bioavailability [5] [%] | Vd [6] [L/kg] | half-life [7] [min] | half-life [8] [min] | Vd [9] [L/kg] | clearance [10] [mL/min/kg] | SMILES |
| --- | --- | --- | --- | --- | --- | --- | --- | --- | --- | --- |
| > 5 | 11 |  |  |  |  |  |  |  |  | O=C(Nc1ccc(F)cc1F)N1CCC(N(CCc2ccc(Cl)cc2)C(=O)c2csc3ccccc23)CC1 |
|  | 14 | 67 | 4.9 | 0.5 | 3 | 30 |  |  |  | O=C(c1csc2ccccc12)N(CCc1ccc(Cl)cc1)[C@H]1CC[C@H](O)CC1 |
|  | 20 |  | > 5 |  |  |  | 84 | 3.5 | 29 | O=C(c1cccc2ccccc12)N(CCc1ccc(Cl)cc1)[C@H]1CC[C@H](O)CC1 |

| SMILES | logP [1] | half-life [2] [min] | clearance [3] [mL/min/kg] | logD [4] | bioavailability [5] [%] | Vd [6] [L/kg] | half-life [7] [min] | half-life [8] [min] | Vd [9] [L/kg] | clearance [10] [mL/min/kg] |
| --- | --- | --- | --- | --- | --- | --- | --- | --- | --- | --- |
| O=C(c1csc2ccccc12)N(CCc1ccc(Cl)cc1)C1CCN(CCc2ccc(F)cc2F)CC1 |  |  |  | 4.1 |  |  |  |  |  |  |
